Test [1] concerns carrageenan-induced rat paw edema. Put plainly: Carrageenan-induced rat paw edema model of acute inflammation. The test is classed as in vivo, Wistar albino rats. The conditions noted are these: for % of inhibition of paw edema, 1 h / Rat paw thickness, 1 h / % of inhibition of paw edema, 2 h / Rat paw thickness, 2 h / % of inhibition of paw edema, 3 h / Rat paw thickness, 3 h / Rat paw thickness, 4 h / % of inhibition of paw edema, 4 h / Anti-inflammatory effect on edema diameter compared to the control group (significance): 0.0315 mmol/kg i.p.; for % of inhibition of paw edema, 1 h / % of inhibition of paw edema, 2 h / % of inhibition of paw edema, 3 h / % of inhibition of paw edema, 4 h: vs solvent group; for Rat paw thickness, 1 h: 1 h post-carrageenan; for Rat paw thickness, 1 h / Rat paw thickness, 2 h / Rat paw thickness, 3 h / Rat paw thickness, 4 h / Rat paw thickness, 0 h: mean ± SD; for Rat paw thickness, 2 h: 2 h post-carrageenan; for Rat paw thickness, 3 h: 3 h post-carrageenan; for Rat paw thickness, 4 h: 4 h post-carrageenan; for Rat paw thickness, 0 h: immediately before inflammation induction; for Anti-inflammatory effect on edema diameter compared to the control group (significance): from 2nd hour to end of observation. The method, then:
Inflammation was induced in all rats by an intraplantar injection of 100 μL of freshly prepared 1% carrageenan solution in distilled water into the left hind paw. A total of 56 male Wistar albino rats were randomly divided into five experimental groups (n = 40 rats, 8 rats per subgroup) and two control groups (n = 16 rats, 8 rats per subgroup).
The experimental groups consisted of rats that received synthesized compounds via intraperitoneal injection immediately following carrageenan administration. The solutions of the investigated molecules were prepared by dissolving the compound in distilled water with the addition of a few drops of Tween 80 [18], whereby each rat received 500 μL of the prepared solution. […] The negative control group included rats that received an intraperitoneal injection of the solvent solution (distilled water with a few drops of Tween 80) at the same time point.
To quantify the anti-edematous effect, the thickness of the left paw tissue of each rat was measured at specific time intervals: immediately before inflammation induction (moment 0) and at 1, 2, 3, and 4 h post-induction (moments 1, 2, 3, and 4, respectively). Tissue thickness was assessed in the middle of the rat paw using a digital vernier caliper (Aerospace, Beijing, China).
(The carrageenan paw model is a standard test of acute inflammation.)

In the next test the target is T1, COX-2 (Homo sapiens, UniProt P35354).
T1 construct: purchased Abcam ab283401
T1 sequence (P35354 18-604): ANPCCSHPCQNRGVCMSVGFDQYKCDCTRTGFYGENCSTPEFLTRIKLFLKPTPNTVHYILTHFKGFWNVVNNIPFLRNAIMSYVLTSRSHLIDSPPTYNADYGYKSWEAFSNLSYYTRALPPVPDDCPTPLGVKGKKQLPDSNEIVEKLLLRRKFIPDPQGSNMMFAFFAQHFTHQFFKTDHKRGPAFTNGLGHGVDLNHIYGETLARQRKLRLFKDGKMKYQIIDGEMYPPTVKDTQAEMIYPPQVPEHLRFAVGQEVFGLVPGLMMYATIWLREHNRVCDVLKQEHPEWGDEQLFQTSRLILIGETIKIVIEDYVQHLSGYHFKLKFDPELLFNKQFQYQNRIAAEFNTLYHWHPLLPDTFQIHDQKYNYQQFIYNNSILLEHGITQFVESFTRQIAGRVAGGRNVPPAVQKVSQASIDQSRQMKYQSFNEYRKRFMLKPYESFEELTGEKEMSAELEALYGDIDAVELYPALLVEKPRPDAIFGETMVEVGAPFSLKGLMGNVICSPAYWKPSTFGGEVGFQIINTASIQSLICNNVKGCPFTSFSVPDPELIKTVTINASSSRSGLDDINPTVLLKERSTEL
Briefly: Fluorometric COX-2 inhibitor screening kit. The test is classed as biochemical. The conditions noted are these: mean ± standard error, three independent measurements. The method, then:
The inhibitory activity of the tested compounds against COX-1 and COX-2 isoforms was assessed using fluorometric cyclooxygenase inhibitor screening kits (Catalog Numbers ab204698 and ab283401, respectively; Abcam, Cambridge, UK). These assays detect the formation of prostaglandin G2, a product of COX enzymatic activity, via fluorometric measurement.
Stock solutions of the test compounds were prepared at a concentration of 5 mM in DMSO and subsequently diluted with the same solvent to obtain the test solutions. For the assay preparation, 2 μL of each test solution was diluted with 8 μL of COX assay buffer. The solvent control (SC) consisted of 2 μL of DMSO and 8 μL of assay buffer, while the enzyme control (EC) contained 10 μL of assay buffer alone. Sample wells (S) received 10 μL of the diluted test solutions. All other steps were in accordance with the manufacturer’s protocol and the previously published article. Fluorescence was measured kinetically over a 10 min period at 25 °C, using the excitation and emission wavelengths of 535 nm and 587 nm, respectively. The percentage of inhibition was calculated as follows:(3) % Relative Inhibition=Slope of EC−Slope of S/Slope of EC×100
Fluorescence measurements were conducted on a BioTek Synergy LX multi-mode reader (Winooski, VT, USA).

Test [2] deals with systemic oxidative stress parameters. Briefly: Systemic redox state (plasma, erythrocyte lysate) 24 h after carrageenan. The test is classed as in vivo, Wistar albino rats. The method, then: Following 24 h of carrageenan-induced paw edema inflammation model and intraperitoneal anesthesia induced by ketamine/xylazine (100/10 mg/kg of BW), the animals were sacrificed, while whole-blood samples and edema-affected paw tissues were isolated. After centrifugation of whole blood, plasma and erythrocyte lysate samples were separated for further examination of the applied compounds’ effects on the systemic redox balance state. Pro-oxidative markers including superoxide anion radical (O2∙^−), hydrogen peroxide (H2O2) nitrites (NO2^−), and index of lipid peroxidation measured as thiobarbituric acid (TBA) reactive substances (TBARS) were determined from plasma samples, while the antioxidant capacity, including superoxide dismutase (SOD) and catalase (CAT) activity, as well as the reduced glutathione (GSH) level were examined in erythrocyte lysate samples [46]. […] Edema-affected paw tissue samples were weighed (100 mg) and homogenized (OmniPrep™ multi-sample homogenizer, Omni International, Kennesaw, GA, USA) in 900 µL phosphate buffer on ice (pH = 7.4), and centrifuged at 12,000 rpm for 20 min. These supernatant samples were used for the determination of the aforementioned pro-oxidative and antioxidative parameters levels. All oxidative stress analyses were performed spectrophotometrically using a Shimadzu UV 1800 spectrophotometer (Kyoto, Japan).
Determination of the O2∙^− level was conducted by adding 950 µL of a Nitro Blue Tetrazolium (NBT) mixture with TRIS buffer in 50 µL of sample, measured at the 550 nm wavelength. The level of H2O2 was determined during the oxidation of phenol red by H2O2, which was catalyzed with horseradish peroxidase and measured at the 610 nm wavelength. Indirect measurement of nitrites was performed by the precipitation of samples with 30% sulfo-salicylic acid, followed by vortexing and centrifugation at 3000 rpm for 15 min. The equal volumes of isolated supernatant and Griess’ reagent (containing 1% sulfanilamide in 5% phosphoric acid/0.1% naphthalene ethylenediamine-dihydrochloride) were incubated for 10 min and measured at the 550 nm wavelength. The TBARS concentration was determined by adding 400 µL of sample to 200 µL of TBA in 0.05 M NaOH, followed by 15 min incubation at 100 °C. Measurement was performed at the 530 nm wavelength.
The epinephrine method was used for SOD determination. By adding 100 µL of sample, the same volume of epinephrine, and 1000 µL of carbonate buffer, the measurement was performed at the 470 nm wavelength. The determination of CAT activity was based on the preparation of a mixture containing 100 µL of sample, 50 µL of catalase buffer, and 1000 µL of 10 mM H2O2, which was measured at the 230 nm wavelength.

From paper PMC12291762 (Antioxidants, 2025) come the findings set out here.

`C[C@H](C(=O)N[C@@H](Cc1ccccc1)C(=O)O)c1cccc(C(=O)c2ccccc2)c1` [Compound 3, ((S)-2-(3-benzoylphenyl)propanoyl)-L-phenylalanine]: in test [1], the “% of inhibition of paw edema, 1 h” value is given as 10.526%; the “Rat paw thickness, 1 h” value came to 6.25 ± 0.25 mm; the “% of inhibition of paw edema, 2 h” value is reported as 20.863%; the “Rat paw thickness, 2 h” value is reported as 6.10 ± 0.18 mm. In test [1], the “% of inhibition of paw edema, 3 h” value is recorded as 22.807%; the “Rat paw thickness, 3 h” value amounted to 5.73 ± 0.23 mm; the “Rat paw thickness, 4 h” value worked out at 4.93 ± 0.37 mm; the “Rat paw thickness, 0 h” value was determined as 4.27 ± 0.21 mm. Further, the IC50 at COX-2 was greater than 100 µM. In addition, in test [2] (erythrocyte lysate), the “Systemic SOD activity compared to Dex group” value is “significantly lower activity”. For the same compound, in test [2] (plasma), the “Systemic O2∙− level compared to Dex group” value is given as “no significant difference”; the “Systemic O2∙− level compared to untreated (Sol) rats” value is “significantly lower”; the “Systemic TBARS level compared to Dex group” value was “dexketoprofen injection significantly decreased the TBARS concentration compared to the Sol group, as well as rats treated with compounds 1, 3, and 4”.

Turning to `C[C@H](C(=O)NCC(=O)O)c1cccc(C(=O)c2ccccc2)c1` [Compound 1, (S)-(2-(3-benzoylphenyl)propanoyl)glycine], in test [1], the “% of inhibition of paw edema, 1 h” value stood at 5.263%; the “Rat paw thickness, 1 h” value is 5.68 ± 0.25 mm; the “% of inhibition of paw edema, 2 h” value is reported as 13.669%; the “Rat paw thickness, 2 h” value amounted to 5.58 ± 0.34 mm. Further, in test [1], the “% of inhibition of paw edema, 3 h” value is 16.842%; the “Rat paw thickness, 3 h” value amounted to 5.16 ± 0.34 mm; the “% of inhibition of paw edema, 4 h” value is 18.824%; the “Rat paw thickness, 4 h” value is listed as 4.50 ± 0.29 mm. In addition, in test [1], the “Anti-inflammatory effect on edema diameter compared to the control group (significance)” value is reported as “did not achieve an anti-inflammatory effect at any measurement times” and the “Rat paw thickness, 0 h” value is reported as 3.58 ± 0.13 mm. At COX-2, the IC50 is greater than 100 µM. The “Systemic SOD activity compared to Dex group” value in test [2] (erythrocyte lysate) is listed as “significantly lower activity”. Also, in test [2] (plasma), the “Systemic O2∙− level compared to Dex group” value is “significantly higher concentration”; the “Systemic TBARS level compared to Dex group” value was “dexketoprofen injection significantly decreased the TBARS concentration compared to the Sol group, as well as rats treated with compounds 1, 3, and 4”; the “Systemic TBARS level compared to Sol (untreated) rats” value was “significantly reducing”.

As for `C[C@H](NC(=O)[C@@H](C)c1cccc(C(=O)c2ccccc2)c1)C(=O)O` [Compound 2, ((S)-2-(3-benzoylphenyl)propanoyl)-L-alanine], in test [1], the “% of inhibition of paw edema, 1 h” value stood at 16.090%; the “Rat paw thickness, 1 h” value is recorded as 6.52 ± 0.28 mm; the “% of inhibition of paw edema, 2 h” value is listed as 26.619%; the “Rat paw thickness, 2 h” value was found to be 6.36 ± 0.25 mm. In addition, in test [1], the “% of inhibition of paw edema, 3 h” value was 33.684%; the “Rat paw thickness, 3 h” value came out at 5.92 ± 0.19 mm; the “% of inhibition of paw edema, 4 h” value is 62.941%; the “Rat paw thickness, 4 h” value worked out at 5.08 ± 0.54 mm. In addition, in test [1], the “Anti-inflammatory effect on edema diameter compared to the control group (significance)” value is “significantly reduced the edema diameter” and the “Rat paw thickness, 0 h” value is given as 4.66 ± 0.13 mm. The IC50 at COX-2 is greater than 100 µM. Further, in test [2] (erythrocyte lysate), the “Systemic CAT activity compared to Dex group” value is given as “highest potential to increase CAT activity”, the “Systemic GSH level compared to untreated rats” value is given as “significantly increased GSH level” and the “Systemic SOD activity compared to Dex group” value was “no statistical differences”. Besides, in test [2] (plasma), the “Systemic O2∙− level compared to Dex group” value is recorded as “no significant difference” and the “Systemic O2∙− level compared to untreated (Sol) rats” value was “significantly lower”.

As for `C[C@H](C(=O)N[C@@H](Cc1c[nH]c2ccccc12)C(=O)O)c1cccc(C(=O)c2ccccc2)c1` [Compound 4, ((S)-2-(3-benzoylphenyl)propanoyl)-L-tryptophan], in test [1], the “% of inhibition of paw edema, 1 h” value amounted to 15.038%; the “Rat paw thickness, 1 h” value came to 5.90 ± 0.37 mm; the “% of inhibition of paw edema, 2 h” value came out at 24.460%; the “Rat paw thickness, 2 h” value amounted to 5.77 ± 0.36 mm. Besides, in test [1], the “% of inhibition of paw edema, 3 h” value amounted to 28.070%; the “Rat paw thickness, 3 h” value turned out to be 5.38 ± 0.34 mm; the “% of inhibition of paw edema, 4 h” value is 58.824%; the “Rat paw thickness, 4 h” value was 4.48 ± 0.33 mm. Besides, in test [1], the “Anti-inflammatory effect on edema diameter compared to the control group (significance)” value is “significantly reduced the edema diameter” and the “Rat paw thickness, 0 h” value worked out at 4.02 ± 0.12 mm. The IC50 at COX-2 is 37.5 ± 3.43 µM. Also, in test [2] (erythrocyte lysate), the “Systemic CAT activity compared to Dex group” value is on record as “decreased this enzyme activity”, the “Systemic GSH level compared to Dex group” value is recorded as “significantly reduced” and the “Systemic SOD activity compared to Dex group” value was “significantly lower activity”. In test [2] (plasma), the “Systemic O2∙− level compared to Dex group” value is “significantly higher concentration”; the “Systemic TBARS level compared to Dex group” value was “dexketoprofen injection significantly decreased the TBARS concentration compared to the Sol group, as well as rats treated with compounds 1, 3, and 4”.

The IC50 is the point on the concentration scale where inhibition reaches its midpoint.
